O=C(O)CNC(=O)OCc1ccccc1
solubility (mole fraction) (in 2-butanone, 283.15 K): 0.0371 | solubility (mole fraction) (in 2-butanone, 288.15 K): 0.0437 | solubility (mole fraction) (in 2-butanone, 293.15 K): 0.0508 | solubility (mole fraction) (in 2-butanone, 298.15 K): 0.0592 | solubility (mole fraction) (in 2-butanone, 303.15 K): 0.0692 | solubility (mole fraction) (in 2-butanone, 308.15 K): 0.082 | solubility (mole fraction) (in 2-butanone, 313.15 K): 0.0966 | solubility (mole fraction) (in 2-butanone, 318.15 K): 0.114 | solubility (mole fraction) (in 2-butanone, 323.15 K): 0.134 | solubility (mole fraction) (in acetone, 283.15 K): 0.0617 | solubility (mole fraction) (in acetone, 288.15 K): 0.0709 | solubility (mole fraction) (in acetone, 293.15 K): 0.0815 | solubility (mole fraction) (in acetone, 298.15 K): 0.0942 | solubility (mole fraction) (in acetone, 303.15 K): 0.108 | solubility (mole fraction) (in acetone, 308.15 K): 0.123 | solubility (mole fraction) (in acetone, 313.15 K): 0.14 | solubility (mole fraction) (in acetone, 318.15 K): 0.169 | solubility (mole fraction) (in acetone, 323.15 K): 0.197 | solubility (mole fraction) (in acetonitrile, 283.15 K): 0.0106 | solubility (mole fraction) (in acetonitrile, 288.15 K): 0.0132 | solubility (mole fraction) (in acetonitrile, 293.15 K): 0.0159 | solubility (mole fraction) (in acetonitrile, 298.15 K): 0.0198 | solubility (mole fraction) (in acetonitrile, 303.15 K): 0.0251 | solubility (mole fraction) (in acetonitrile, 308.15 K): 0.032 | solubility (mole fraction) (in acetonitrile, 313.15 K): 0.0408 | solubility (mole fraction) (in acetonitrile, 318.15 K): 0.052 | solubility (mole fraction) (in acetonitrile, 323.15 K): 0.067 | solubility (mole fraction) (in ethanol, 283.15 K): 0.0415 | solubility (mole fraction) (in ethanol, 288.15 K): 0.0499 | solubility (mole fraction) (in ethanol, 293.15 K): 0.0611 | solubility (mole fraction) (in ethanol, 298.15 K): 0.0767 | solubility (mole fraction) (in ethanol, 303.15 K): 0.0955 | solubility (mole fraction) (in ethanol, 308.15 K): 0.11 | solubility (mole fraction) (in ethanol, 313.15 K): 0.131 | solubility (mole fraction) (in ethanol, 318.15 K): 0.157 | solubility (mole fraction) (in ethanol, 323.15 K): 0.186 | solubility (mole fraction) (in ethyl acetate, 283.15 K): 0.0185 | solubility (mole fraction) (in ethyl acetate, 288.15 K): 0.0222 | solubility (mole fraction) (in ethyl acetate, 293.15 K): 0.026 | solubility (mole fraction) (in ethyl acetate, 298.15 K): 0.0308 | solubility (mole fraction) (in ethyl acetate, 303.15 K): 0.0369 | solubility (mole fraction) (in ethyl acetate, 308.15 K): 0.0442 | solubility (mole fraction) (in ethyl acetate, 313.15 K): 0.053 | solubility (mole fraction) (in ethyl acetate, 318.15 K): 0.0642 | solubility (mole fraction) (in ethyl acetate, 323.15 K): 0.0783 | solubility (mole fraction) (in isobutanol, 283.15 K): 0.0149 | solubility (mole fraction) (in isobutanol, 288.15 K): 0.0188 | solubility (mole fraction) (in isobutanol, 293.15 K): 0.0237 | solubility (mole fraction) (in isobutanol, 298.15 K): 0.0315 | solubility (mole fraction) (in isobutanol, 303.15 K): 0.0394 | solubility (mole fraction) (in isobutanol, 308.15 K): 0.0523 | solubility (mole fraction) (in isobutanol, 313.15 K): 0.0665 | solubility (mole fraction) (in isobutanol, 318.15 K): 0.0853 | solubility (mole fraction) (in isobutanol, 323.15 K): 0.109 | solubility (mole fraction) (in isopropanol, 283.15 K): 0.0261 | solubility (mole fraction) (in isopropanol, 288.15 K): 0.0338 | solubility (mole fraction) (in isopropanol, 293.15 K): 0.0449 | solubility (mole fraction) (in isopropanol, 298.15 K): 0.0566 | solubility (mole fraction) (in isopropanol, 303.15 K): 0.0707 | solubility (mole fraction) (in isopropanol, 308.15 K): 0.0864 | solubility (mole fraction) (in isopropanol, 313.15 K): 0.108 | solubility (mole fraction) (in isopropanol, 318.15 K): 0.133 | solubility (mole fraction) (in isopropanol, 323.15 K): 0.16 | solubility (mole fraction) (in methanol, 283.15 K): 0.0654 | solubility (mole fraction) (in methanol, 288.15 K): 0.0769 | solubility (mole fraction) (in methanol, 293.15 K): 0.0933 | solubility (mole fraction) (in methanol, 298.15 K): 0.109 | solubility (mole fraction) (in methanol, 303.15 K): 0.123 | solubility (mole fraction) (in methanol, 308.15 K): 0.143 | solubility (mole fraction) (in methanol, 313.15 K): 0.164 | solubility (mole fraction) (in methanol, 318.15 K): 0.19 | solubility (mole fraction) (in methanol, 323.15 K): 0.219 | solubility (mole fraction) (in methyl acetate, 283.15 K): 0.0261 | solubility (mole fraction) (in methyl acetate, 288.15 K): 0.0309 | solubility (mole fraction) (in methyl acetate, 293.15 K): 0.0366 | solubility (mole fraction) (in methyl acetate, 298.15 K): 0.0436 | solubility (mole fraction) (in methyl acetate, 303.15 K): 0.053 | solubility (mole fraction) (in methyl acetate, 308.15 K): 0.0627 | solubility (mole fraction) (in methyl acetate, 313.15 K): 0.0737 | solubility (mole fraction) (in methyl acetate, 318.15 K): 0.0902 | solubility (mole fraction) (in methyl acetate, 323.15 K): 0.105 | solubility (mole fraction) (in n-butanol, 283.15 K): 0.0205 | solubility (mole fraction) (in n-butanol, 288.15 K): 0.0257 | solubility (mole fraction) (in n-butanol, 293.15 K): 0.032 | solubility (mole fraction) (in n-butanol, 298.15 K): 0.04 | solubility (mole fraction) (in n-butanol, 303.15 K): 0.0504 | solubility (mole fraction) (in n-butanol, 308.15 K): 0.0627 | solubility (mole fraction) (in n-butanol, 313.15 K): 0.0786 | solubility (mole fraction) (in n-butanol, 318.15 K): 0.0982 | solubility (mole fraction) (in n-butanol, 323.15 K): 0.122 | solubility (mole fraction) (in n-pentanol, 283.15 K): 0.018 | solubility (mole fraction) (in n-pentanol, 288.15 K): 0.0221 | solubility (mole fraction) (in n-pentanol, 293.15 K): 0.0275 | solubility (mole fraction) (in n-pentanol, 298.15 K): 0.0349 | solubility (mole fraction) (in n-pentanol, 303.15 K): 0.0429 | solubility (mole fraction) (in n-pentanol, 308.15 K): 0.0578 | solubility (mole fraction) (in n-pentanol, 313.15 K): 0.0727 | solubility (mole fraction) (in n-pentanol, 318.15 K): 0.0886 | solubility (mole fraction) (in n-pentanol, 323.15 K): 0.111 | solubility (mole fraction) (in n-propanol, 283.15 K): 0.0261 | solubility (mole fraction) (in n-propanol, 288.15 K): 0.0327 | solubility (mole fraction) (in n-propanol, 293.15 K): 0.0399 | solubility (mole fraction) (in n-propanol, 298.15 K): 0.0504 | solubility (mole fraction) (in n-propanol, 303.15 K): 0.0636 | solubility (mole fraction) (in n-propanol, 308.15 K): 0.0794 | solubility (mole fraction) (in n-propanol, 313.15 K): 0.0986 | solubility (mole fraction) (in n-propanol, 318.15 K): 0.122 | solubility (mole fraction) (in n-propanol, 323.15 K): 0.149

From BigSolDB 2.1
